Assay results as given in patent publication EP1298214A2, “Plant thioesterases” (Calgene LLC, priority 1990, dated 1991).

Key:
[1] = tested on: pET3a-THI0 E. coli lysate (truncated Bay 12:0-ACP thioesterase); test: Acyl-ACP hydrolysis by lysate of E. coli expressing truncated Bay thioesterase cDNA; assay type: biochemical, Umbellularia californica; conditions: 1 hour induction with 1mM IPTG
Procedure: (§1) To assay for C12 thioesterase activity the following mixture is incubated at 30° for 30 min: "buffer" comprising 7mM KH2PO4-KOH pH 8, 20% v/v glycerol, 1mM dithiothreitol (DTT), 0.1% v/v Triton X100; sample to be tested for activity in the same or similar buffer as the "extraction buffer" described in Example 2; and 5µl of ^14C-radiolabeled lauroyl-ACP substrate for a total volume of 100µl and final lauroyl-ACP concentration of 0.5µM. Lauroyl-ACP substrate is prepared according to the method of Rock et al (Methods in Enzymology (1981) 72:397-403), using ACP prepared from Escherichia coli by the method of Rock and Cronan (Methods in Enzymology (1981) 71:341-351). The laurate is radiolabeled in the carboxylate group at a specific radioactivity of 50-60µCi/µmol.
(§2) The reaction is stopped by adding 0.5ml cold (0°) 10% v/v acetic acid. The fatty acid product of the hydrolytic enzyme action is extracted away from the unhydrolyzed substrate by adding 1ml diethyl ether and mixing vigorously. After settling for a few minutes the upper ether layer is transferred to 5ml scintillation fluid for determination of radioactivity by liquid scintillation spectrometry. Additional ether extractions may be performed to recover remaining traces of the reaction product for more accurate quantitation of the enzyme activity if desired. The amount of ether-extracted radioactivity is a direct measure of C12-preferring acyl-ACP thioesterase activity, provided the amount of enzyme is not sufficient to hydrolyze more than about 25% of the substrate. With greater activity than this the relationship between radioactivity in the ether layer and the quantity of enzyme becomes markedly nonlinear. The enzyme preparation must then be diluted appropriately to bring the activity into the linear range of the assay.
A pET3a vector (Rosenberg, et al., Gene (1987) 56:125-135) is used in an E. coil strain BL21 (PE3) (Studier and Moffat, J. Mol. Biol. (1986) 189:113-130) host for this study. The pET3a vector contains a promoter and 33 bp of the 5' reading frame of bacteriophase T7. T7 polymerase is under the regulatory control of an isopropyl-b-D-thiogalactopyranoside (IPTG)-inducible lac UV5 promoter found in the E. coli BL21 (DE3) strain. Thus, by the addition of IPTG to E. coli BL21 (DE3) transformed with pET3a, the T7 promoter will be activated.
Constructs are prepared containing the truncated cDNA of Fig. 2 fused in reading frame by deletion of the BamHI/EcoRI fragment and replacement of the thioesterase sequence. E. coli are transformed with pET3a constructs containing the thioesterase (pET3a-THI0) and unmodified pET3a as a control. The E. coli are grown at 37°C in liquid medium and expression is induced by the addition of 1mM IPTG. […]

[2] = target: T1, pCGN3823 induced E. coli lysate (mature bay thioesterase) (Umbellularia californica, UniProt Q41635); test: Acyl-ACP hydrolysis by lysate of E. coli expressing mature bay thioesterase as lac fusion; assay type: biochemical; conditions: Dilution 1/4000, one hour induction with 0.1mM IPTG
T1 construct: the entire mature bay thioesterase protein is expressed as a lac fusion in E. coli cells; made in house
T1 sequence (Q41635 84-382): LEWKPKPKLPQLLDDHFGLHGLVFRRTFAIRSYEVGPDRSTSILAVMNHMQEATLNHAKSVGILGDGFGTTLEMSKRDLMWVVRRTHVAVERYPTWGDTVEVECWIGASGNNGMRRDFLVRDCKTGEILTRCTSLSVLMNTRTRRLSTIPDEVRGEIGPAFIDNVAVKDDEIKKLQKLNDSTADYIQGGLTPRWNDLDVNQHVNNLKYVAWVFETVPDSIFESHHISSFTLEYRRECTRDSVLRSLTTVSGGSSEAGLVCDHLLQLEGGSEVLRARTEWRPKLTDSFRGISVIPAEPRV
Procedure: as §1, §2
In addition, the entire mature bay thioesterase protein is expressed as a lac fusion in E. coli cells. […] Digestion at this XbaI site cleaves the coding region immediately 5' of the codon representing the leucine at amino acid position 72. This leucine has been identified as a candidate for the amino terminal residue as described in Example 14A.
An approximately 1200 bp fragment of pCGN3822 cDNA is generated by digestion with XbaI, which cuts at the postulated mature protein start site, as described above, and in the vector sequences flanking the 3' end of the cDNA. The XbaI fragment is cloned on XbaI digest of the minus version of a Bluescribe M13(+/-) (also called pBS+/-) cloning vector (Stratagene; San Diego, CA.). The thioesterase gene clone is inserted such that the mature protein is in reading frame with a portion of the lacZ gene of the Bluescribe vector and under control of the lac promoter. […]

Row | Substance | Hydrolysis Activity (mean cpm in ether extract) [1] [cpm] | Hydrolysis Activity (mean cpm in ether extract) [2] [cpm]
1 | 14:0-ACP | 1035 | 116
2 | decanoyl-ACP [10:0-ACP] | 621 | 0
3 | lauroyl-ACP [12:0-ACP] | 2127 | 1840
4 | 16:0-ACP | 1900 | 20
